# Source: patent publication US12227498B2, “Heterocyclic amine derivative and pharmaceutical composition comprising same” (Daewoong Pharmaceutical Co., Ltd., priority 2018, dated 2025)
# How the values were obtained:
# BTK = target: T1, BTK (Homo sapiens, UniProt Q06187); test: Inhibitory activity against BTK, ADP-Glo + BTK Kinase enzyme system kit (Promega); format: biochemical; details: BTK enzyme 1 ng/μl; ATP 10 µM; 15 min preincubation at room temperature; 1 hour at 30° C.; luminescence; duplicate
# T1 construct: purchased Promega Corporation
# T1 sequence (Q06187 whole entry): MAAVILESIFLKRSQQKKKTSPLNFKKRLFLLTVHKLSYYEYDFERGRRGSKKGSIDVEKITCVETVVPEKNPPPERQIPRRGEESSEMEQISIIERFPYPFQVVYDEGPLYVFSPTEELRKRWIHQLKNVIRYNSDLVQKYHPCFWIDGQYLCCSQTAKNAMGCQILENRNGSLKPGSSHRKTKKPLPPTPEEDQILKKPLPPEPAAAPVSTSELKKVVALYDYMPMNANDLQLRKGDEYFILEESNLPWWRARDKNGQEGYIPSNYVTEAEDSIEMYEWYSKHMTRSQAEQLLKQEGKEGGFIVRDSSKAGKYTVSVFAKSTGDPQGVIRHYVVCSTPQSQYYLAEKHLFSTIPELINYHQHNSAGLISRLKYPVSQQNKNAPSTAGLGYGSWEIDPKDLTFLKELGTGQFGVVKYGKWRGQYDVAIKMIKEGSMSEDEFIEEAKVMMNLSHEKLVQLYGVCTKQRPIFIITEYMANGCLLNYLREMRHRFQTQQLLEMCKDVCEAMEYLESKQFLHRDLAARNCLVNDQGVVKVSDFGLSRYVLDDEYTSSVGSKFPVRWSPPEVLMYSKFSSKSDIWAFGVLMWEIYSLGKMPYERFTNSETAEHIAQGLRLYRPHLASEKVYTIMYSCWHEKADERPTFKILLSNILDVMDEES
# Method: (§1) Inhibitory activities against BTK and ITK were measured for the compounds prepared in the above Examples as follows.
# The inhibitory activities against BTK were evaluated using ‘ADP-Glo™+BTK Kinase enzyme system’ kit (Promega Corporation). […] 5 μl of substrate and 5 μl of ATP prepared so as to have a final concentration of 10 µM were added to the plate on which reactions were completed, and then allowed to react at 30° C. for 1 hour. All wells of the plate were treated with 25 μl of ADP-Glo™ reagent and allowed to react at 30° C. for 40 minutes. After that, all wells were treated with 50 μl of kinase detection buffer, and then reacted at 30° C. for 30 minutes under light shielding conditions. For the plate on which all reactions were completed, luminescence was measured and the results were calculated. Evaluation was carried out in duplicate, and negative control and positive control were calculated depending on whether or not the enzyme was added without treatment of the compound. The IC50 was calculated based on the calculated values.
# ITK = target: T2, ITK (Homo sapiens, UniProt Q08881); test: Inhibitory activity against ITK, ADP-Glo + ITK Kinase enzyme system kit (Promega); format: biochemical; details: ITK enzyme 0.4 ng/μl; 15 min preincubation at room temperature; 1 hour at 30° C.; luminescence; duplicate
# T2 construct: purchased Promega Corporation
# T2 sequence (Q08881 1-620): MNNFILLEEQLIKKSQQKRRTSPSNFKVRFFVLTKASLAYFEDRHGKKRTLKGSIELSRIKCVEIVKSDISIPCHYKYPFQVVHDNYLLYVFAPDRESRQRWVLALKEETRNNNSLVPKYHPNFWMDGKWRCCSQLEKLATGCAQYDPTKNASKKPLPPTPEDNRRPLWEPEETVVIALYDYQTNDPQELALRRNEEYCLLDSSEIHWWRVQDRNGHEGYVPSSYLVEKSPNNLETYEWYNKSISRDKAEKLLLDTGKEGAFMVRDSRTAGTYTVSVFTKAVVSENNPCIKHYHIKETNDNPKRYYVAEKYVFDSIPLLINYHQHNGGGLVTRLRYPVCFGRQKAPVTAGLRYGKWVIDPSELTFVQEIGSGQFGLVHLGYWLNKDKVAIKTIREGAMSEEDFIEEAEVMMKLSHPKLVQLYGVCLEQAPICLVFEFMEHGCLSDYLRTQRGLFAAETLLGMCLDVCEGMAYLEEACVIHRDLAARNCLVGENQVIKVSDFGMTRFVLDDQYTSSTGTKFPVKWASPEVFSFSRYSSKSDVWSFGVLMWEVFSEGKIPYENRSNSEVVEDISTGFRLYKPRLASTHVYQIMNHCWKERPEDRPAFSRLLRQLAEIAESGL
# Method: as §1
# The inhibitory activity against ITK was evaluated using ‘ADP-Glo™+ITK Kinase enzyme system’ kit (Promega Corporation). […] To the plate on which reactions were completed, 5 μl of substrate and 5 μl of ATP prepared so as to have a final concentration of […] were added and then allowed to react at 30° C. for 1 hour. All wells of the plate were treated with 25 μl of ADP-Glo™ reagent and then allowed to react at 30° C. for 40 minutes. After that, all wells were treated with 50 μl of kinase detection buffer, and then allowed to react at 30° C. for 30 minutes under light shielding conditions. For the plate on which all reactions were completed, luminescence was measured and the results were calculated. Evaluation was carried out in duplicate, and negative control and positive control were calculated depending on whether or not the enzyme was added without treatment of the compound. The IC50 was calculated based on the calculated values.
smiles,measurement,setting,value
"C=CC(=O)N1CCC[C@H](Nc2cc(CN3CCOCC3)cc(Nc3nccs3)n2)C1 [Example 51, (S)-1-(3-(4-(morpholinomethyl)-6-(thiazol-2-ylamino)pyridin-2-ylamino)piperidin-1-yl) prop-2-en-1-one]",IC50,BTK,~1000 nM
same,IC50,ITK,~1000 nM
"C=CC(=O)N1CCC[C@H](Nc2nc(Nc3ncc(C)s3)cc(CN3CCOCC3)c2F)C1 [Example 52, (S)-1-(3-(3-fluoro-6-(5-methylthiazol-2-ylamino)-4-(morpholinomethyl)pyridin-2-ylamino)piperidin-1-yl) prop-2-en-1-one]",IC50,BTK,~1000 nM
same,IC50,ITK,~1000 nM
"C=CC(=O)N1CCC[C@H](Nc2cc(CN3CCOCC3)cc(Nc3ccccn3)n2)C1 [Example 53, (S)-1-(3-(4-(morpholinomethyl)-6-(pyridin-2-ylamino)pyridin-2-ylamino)piperidin-1-yl) prop-2-en-1-one]",IC50,BTK,7.7 nM
same,IC50,ITK,42.8 nM
"C=CC(=O)N1CCC[C@H](Nc2cc(CN3CCOCC3)cc(Nc3ncccn3)n2)C1 [Example 54, (S)-1-(3-(4-(morpholinomethyl)-6-(pyrimidin-2-ylamino)pyridin-2-ylamino)piperidin-1-yl) prop-2-en-1-one]",IC50,BTK,~1000 nM
same,IC50,ITK,~1000 nM
